Peptide text beside a SMILES is read from it. * marks the point of attachment. Tyr(Nα,Nα-Bn2) = O=C([C@H](Cc1ccc(O)cc1)N(Cc1ccccc1)Cc1ccccc1)*; Tyr(Nα,Nα-allyl2) = C=CCN(CC=C)[C@@H](Cc1ccc(O)cc1)C(=O)*; X4 = O=C([C@H](Cc1ccc(O)cc1)N(CCc1ccccc1)CCc1ccccc1)*; X5 = CCCCCCCCN(CCCCCCCC)[C@@H](Cc1ccc(O)cc1)C(=O)*; X3 = O=C([C@H](Cc1ccc(O)cc1)N(CC1CC1)CC1CC1)*; X1 = CCCCCN(CCCCC)[C@@H](Cc1ccc(O)cc1)C(=O)*; X2 = CCCN(CCC)[C@@H](Cc1ccc(O)cc1)C(=O)*
Experiments:
Cavia porcellus = organism: Cavia porcellus; assay: Agonistic activity was measured on the electrically stimulated longitudinal muscle of the guinea pig ileum (GPI) at 1 uM concentration; details: Muscle tissue
Mus musculus = organism: Mus musculus; assay: Agonistic activity was measured on the electrically stimulated longitudinal muscle of the mouse vas deferens (MVD) at 1 uM concentration; details: Muscle tissue

Structure (SMILES) | inhibition at 1 µM (Cavia porcellus) | inhibition at 1 µM (Mus musculus)
CCCCCN(CCCCC)[C@@H](Cc1ccc(O)cc1)C(=O)NCC(=O)NCC(=O)N[C@@H](Cc1ccccc1)C(=O)N[C@@H](CC(C)C)C(=O)O (X1-GGFL-OH) | 15.9% | 20.4%
CCCN(CCC)[C@@H](Cc1ccc(O)cc1)C(=O)NCC(=O)NCC(=O)N[C@@H](Cc1ccccc1)C(=O)N[C@@H](CC(C)C)C(=O)O (X2-GGFL-OH) | -2.6% | 11.9%
CC(C)C[C@H](NC(=O)[C@H](Cc1ccccc1)NC(=O)CNC(=O)CNC(=O)[C@H](Cc1ccc(O)cc1)N(CC1CC1)CC1CC1)C(=O)O (X3-GGFL-OH) | 2.2% | 27.3%
CC(C)C[C@H](NC(=O)[C@H](Cc1ccccc1)NC(=O)CNC(=O)CNC(=O)[C@H](Cc1ccc(O)cc1)N(CCc1ccccc1)CCc1ccccc1)C(=O)O (X4-GGFL-OH) | 14.7% | 60.5%
CCCCCCCCN(CCCCCCCC)[C@@H](Cc1ccc(O)cc1)C(=O)NCC(=O)NCC(=O)N[C@@H](Cc1ccccc1)C(=O)N[C@@H](CC(C)C)C(=O)O (X5-GGFL-OH) | 8.1% | 39.2%
CC(C)C[C@H](NC(=O)[C@H](Cc1ccccc1)NC(=O)CNC(=O)CNC(=O)[C@H](Cc1ccc(O)cc1)N(Cc1ccccc1)Cc1ccccc1)C(=O)O ({Tyr(Nα,Nα-Bn2)}-GGFL-OH) | 1.9% | 11.4%
C=CCN(CC=C)[C@@H](Cc1ccc(O)cc1)C(=O)NCC(=O)NCC(=O)N[C@@H](Cc1ccccc1)C(=O)N[C@@H](CC(C)C)C(=O)O ({Tyr(Nα,Nα-allyl2)}-GGFL-OH) | -6.7% | 10%
